Results taken from patent US20060257843A1 (priority 2002, published 2006).
Read-outs that look alike come from different tables or passages of the source.

What was measured:
[1] = tested on: primary cultures of cortex
[2] = tested on: cortical cells; settings: 100 uM tolbutamide
[3] = target: F425G Shaker mutation (Drosophila melanogaster, UniProt P08510, F425G); settings: cited from earlier work
[4] = tested on: primary cortical cultures; settings: 5% Triton; 20 minutes incubation

Sequence of F425G Shaker mutation (P08510 whole entry F425G): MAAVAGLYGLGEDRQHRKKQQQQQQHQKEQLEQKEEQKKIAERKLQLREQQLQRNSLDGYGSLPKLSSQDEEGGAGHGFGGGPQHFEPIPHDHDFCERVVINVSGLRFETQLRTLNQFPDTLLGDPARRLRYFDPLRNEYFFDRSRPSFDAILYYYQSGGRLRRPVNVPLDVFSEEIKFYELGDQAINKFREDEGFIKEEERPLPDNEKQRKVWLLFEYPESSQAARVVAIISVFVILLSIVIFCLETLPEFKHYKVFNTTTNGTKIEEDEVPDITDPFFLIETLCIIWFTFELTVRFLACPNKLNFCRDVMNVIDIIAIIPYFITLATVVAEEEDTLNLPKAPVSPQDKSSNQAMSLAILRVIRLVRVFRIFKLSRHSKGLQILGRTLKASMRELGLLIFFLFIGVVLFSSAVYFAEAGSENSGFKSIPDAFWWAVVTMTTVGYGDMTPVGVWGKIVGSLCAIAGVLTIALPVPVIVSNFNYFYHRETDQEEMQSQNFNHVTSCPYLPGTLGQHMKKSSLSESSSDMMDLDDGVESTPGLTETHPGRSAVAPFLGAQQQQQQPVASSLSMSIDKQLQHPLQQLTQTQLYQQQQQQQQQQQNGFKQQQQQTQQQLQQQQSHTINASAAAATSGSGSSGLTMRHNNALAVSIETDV

## Iberiotoxin (QFTDVDCSVSKECWSVCKDLFGVDRGKCMGKKCRCYQ; UniProt P24663 1-37, looked up) [IBTX]
[1]
  effect of K+ channel antagonist on κ-PVIIA-induced hyperpolarization: without any detectable effect

## CCCCNC(=O)NS(=O)(=O)c1ccc(C)cc1 [Tolbutamide, reference compound]
[2]
  effect of tolbutamide on κ-PVIIA protection against glutamate cytotoxicity: blocked

## Nc1ccncc1 [4-AP, 4-aminopyridine]
[1]; cortical preparations, 100 nM κ-PVIIA
  effect of K+ channel antagonist on κ-PVIIA-induced hyperpolarization: without any detectable effect

## charybdotoxin [reference compound]
[3]
  increase of charybdotoxin affinity by F425G Shaker mutation: three orders of magnitude

## COc1ccc(Cl)cc1C(=O)NCCc1ccc(S(=O)(=O)NC(=O)NC2CCCCC2)cc1 [Glibenclamide]
[1]; cortical preparations, Glibenclamide 10 nM, 100 nM κ-PVIIA
  effect of Glibenclamide on κ-PVIIA-induced hyperpolarization: significant reductions

## Triton [reference compound]
[4]
  increase in fluorescence, Enzchek protease-sensitive dye: ~14%
